Patent US6482949B1, “Colormetric sensor compositions and methods” (priority 1999, dated 2002)

Key:
[1] = Colorimetric assay: visual color change in solution on addition of fluoride anion; details: in solution (dichloromethane), naked eye
Source text: (§1) Nonetheless, even with these control systems the addition of tetrabutylammonium salts of various anions (F^−, Cl^− and H2PO4^−), gave rise to results that were quite interesting. […] Such effects can be rationalized in terms of the electron withdrawing nature of the two carbonyl groups, which serve to pull the electrons from the pyrrole units and thus act to increase the acidity of the pyrrolic NH protons. As a result, hydrogen bonding interactions with F^− are favored. In the particular case of inorganic phosphate, we speculate that the two carbonyl groups may also be involved in binding, stabilizing the complex via ancillary hydrogen bonding interactions involving the two HOP-phosphate protons.
Unfortunately, the fluorescence quantum yield of 10 is low.
Using 2,3-dipyrrol-2′yl-5,6dicyanopyrazine (preparation is described in Example 30) as a sensing compound, a vivid yellow-to-red color change in solution observed upon addition of fluoride ion verifies that the quinoxaline backbone is not essential for chemical sensing in this family of compounds. This is consistent with the theory that changes in orbital overlap between the pi systems of conjugated bridging unit and the pyrrole rings account for the sensitivity of the sensing elements to analyte species.
In order to understand more fully the above results, studies were performed to map out the mode of fluoride anion binding. Firstly, it was verified that two pyrrolic nitrogens are required to observe the anion-induced color change. Toward this end, the mono protected 2,3-dipyrrylquinoxaline 12 was prepared by reacting 0.8 equivalents of SEMCl with one equivalent of 2,3-dipyrrylquinoxaline.

[2] = Anion binding constants (Ka) by fluorescence quenching / UV-vis absorbance titration, fluoride; details: for Anion binding constant (Ka), F^−: 1 by fluorescence quenching (λex 412 nm), 10 by UV-vis absorbance titration at 341 nm, errors ± 10%, average of 2-4 trials; for affinity constant (Ka) for F^− binding, rounded: in dichloromethane
Source text: (§2) The conclusion that 1 binds fluoride anion in dichloromethane solution was further supported by mass spectrometric analyses and titration experiments made using UV-visible absorption and fluorescence emission methods (Tables 1 and 2). The latter studies, which provided Ka values (Tables 1 and 2), were complemented by molar ratio analyses (Job plots) with 1:1 binding stoichiometries observed in all cases.
as §1

[3] = Anion binding constants (Ka) by fluorescence quenching / UV-vis absorbance titration, dihydrogen phosphate; details: dichloromethane; for Anion binding constant (Ka), H2PO4^−: 1 by fluorescence quenching, 10 by UV-vis absorbance titration at 341 nm, errors ± 10%, average of 2-4 trials
Source text: as §2, §1

[4] = Anion binding constants (Ka) by fluorescence quenching / UV-vis absorbance titration, chloride; details: dichloromethane; for Anion binding constant (Ka), Cl^−: 1 by fluorescence quenching, 10 by UV-vis absorbance titration at 341 nm, errors ± 10%, average of 2-4 trials
Source text: as §2, §1

| Structure (SMILES) | fluoride anion-induced color change [1] | Anion binding constant (Ka), F^− ([2]; dichloromethane) | Anion binding constant (Ka), H2PO4^− [3] [M⁻¹] | Anion binding constant (Ka), Cl^− [4] [M⁻¹] | affinity constant (Ka) for F^− binding, rounded [2] | change in the absorbance or emission spectra on addition of F^− ([2]; dichloromethane, tetrabutylammonium salt) | change in the absorbance or emission spectra on addition of H2PO4^− ([3]; tetrabutylammonium salt) | change in the absorbance or emission spectra on addition of Cl^− ([4]; tetrabutylammonium salt) |
| --- | --- | --- | --- | --- | --- | --- | --- | --- |
| N#Cc1nc(-c2ccc[nH]2)c(-c2ccc[nH]2)nc1C#N [2,3-dipyrrol-2′yl-5,6dicyanopyrazine, 2,3-dipyrrol-2′yl-5,6-dicyanopyrazine] | yellow-to-red |  |  |  |  |  |  |  |
| C[Si](C)(C)CCOCn1cccc1-c1nc2ccccc2nc1-c1ccc[nH]1 [compound 12] | no color change | 2,300 M^−1 | <50 | <50 |  |  |  |  |
| COc1cc2nc(-c3ccc[nH]3)c(-c3ccc[nH]3)nc2cc1OC [compound 2, 2,3-dipyrrol-2′-yl-6,7-dimethoxyquinoxaline] | hardly “works” at all | 2,300 M^−1 | <50 | <50 | 2000 M⁻¹ |  |  |  |
| O=[N+]([O-])c1cc2nc(-c3ccc[nH]3)c(-c3ccc[nH]3)nc2cc1[N+](=O)[O-] [compound 3, 2,3-dipyrrol-2′-yl-6,7-dinitroquinoxaline] |  | 117,000 M^−1 | 55 | 45 | ~10^5 M^−1 |  |  |  |
| c1ccc2nccnc2c1 [compound 11, quinoxaline, reference compound] |  |  |  |  |  | did not induce any significant change in the absorbance or emission spectra | did not induce any significant change in the absorbance or emission spectra | did not induce any significant change in the absorbance or emission spectra |
| O=[N+]([O-])c1ccc2nc(-c3ccc[nH]3)c(-c3ccc[nH]3)nc2c1 [compound 7, 6-nitro-2,3-dipyrrylquinoxaline] | yellow to purple | 118,000 M^−1 | 80 | 45 | ~10^5 M^−1 |  |  |  |
| c1c[nH]c(-c2nc3ccccc3nc2-c2ccc[nH]2)c1 [compound 1, 2,3-dipyrrylquinoxaline] | yellow to orange | 18,200 M^−1 | 60 | 50 | 20000 M⁻¹ |  |  |  |
